This is an account of results in PMC4763415, “Platinum (IV)-fatty acid conjugates overcome inherently and acquired Cisplatin resistant cancer cell lines: an in-vitro study” (BMC Cancer, 2016).

What is called IC50 is the midpoint of a concentration-inhibition curve.

Values joined by “and” are separate entries in the source; they are usually repeats but may differ in a detail not shown here. Equal entries are not always repeated. Where two headings read alike, the source gives them in different places. Bounds are passed on as bounds.

The subject of test [1] is A2780 (Cisplatin sensitive ovarian cancer cells). The experiment in a line: XTT cell proliferation assay, A2780. The following applies: for IC50: XTT. Type of test: cell-based, human. The method, then:
(§1) (2,3-bis-(2-methoxy-4-nitro-5-sulfophenyl)-2H-tetrazolium-5-carboxanilide) (XTT) assay was used as previously described to evaluate the cytotoxicity of the different Cisplatin derivatives. Briefly, cells (1.5 × 10^4) were plated in RPMI 1640 medium using 96-well plates for 24 h, and then treated for an additional 72 h with the different Cisplatin derivatives. A total of 50 μl of XTT solution were added to each well and incubated for 3 h at 37 °C. The optical density was measured by a multi-well plate spectrophotometer at 450 nanometers with a references’ wavelength of 630 nm. The concentrations inhibiting cell proliferation by 50 % (IC50s) of all tested derivatives were calculated. The experiment was performed in triplicate, and standard deviations were also calculated.
(In general: Tetrazolium assays rely on reduction of a dye to a coloured formazan, in cell work by metabolically active cells.)

Test [2] relates to A2780cisR (Cisplatin resistant ovarian cancer cells). Nature of the test: XTT cell proliferation assay, A2780cisR. To be noted: for IC50: Table 1, XTT, 72 h treatment, read-out: IC50 anti-proliferative activity A2780cisR; for increased anti-proliferative potency compared to Cisplatin, A2780cisR: ratio of IC50s vs Cisplatin. In kind it is cell-based, human. As for the experimental part: as §1

Test [3] deals with K562; chronic myelogenous leukemia (CML) cell lines. The experiment in a line: XTT cell proliferation assay, K562. In kind it is cell-based. The following applies: for IC50: Table 1, XTT, 72 h treatment, read-out: IC50 anti-proliferative activity K562; for enhanced anti-CML activity compared to Cisplatin, K562: ratio of IC50s vs Cisplatin. The method, then: as §1
Test [4] concerns A2780 cells. The experiment in a line: Clonigenicity assay (soft agar), A2780. Type of test: cell-based, human. The following applies: for IC50: soft agar, 2 weeks, read-out: IC50 of clonigenicity inhibition A2780; for clonigenicity IC50s values lower than Cisplatin: ovarian cancer cell lines tested (A2780, A2780cisR). As for the experimental part: (§2) Clonigenicity assay was performed as previously describe. Briefly, cells (1 × 10^4) in 1 ml RPMI 10 % FBS medium were diluted in 1 ml of 0.6 % agar to give a final agar concentration of 0.3 % agar. The cells-agar mixture was poured over a hardened agar base in wells of 12-well plates and allowed to solidify. Once the top layer solidified, 1 ml of medium containing different treatments was placed on top to keep the agar moist. The cells were grown at 37 °C in a 5 % CO2 humidified atmosphere until colonies were visible (2 weeks). The plates were stained for 4 h with 5 mg/ml 3-(4,5-dimethylthiazol-2-yl)-2,5-diphenyltetrazolium bromide (MTT), and the dye was extracted with 1 ml solubilization buffer (20 % SDS, 50 % N,N-dimethyl-formamide, 25 mM HCL) for 24 h. The optical density was measured at 570 nm wavelength with a reference wavelength of 630 nm.

The test system of test [5] is A2780cisR cells. Nature of the test: Clonigenicity assay (soft agar), A2780cisR. In kind it is cell-based, human. To be noted: 2 weeks, read-out: IC50 of clonigenicity inhibition A2780cisR. The method, then: as §2
For test [6], the system named is human foreskin fibroblast cells (HFF). Nature of the test: XTT cell proliferation assay, HFF. In kind it is cell-based. The following applies: for IC50: Table 2, XTT, non-cancerous cells; for ratio of IC50s against none cancerous cells (HFF) to the cancerous cell line (A2780): ratio of XTT IC50s. The method, then:
as §1

Test [7] has as its system human embryonic kidney cell line 293 T (HEK293T). Nature of the test: XTT cell proliferation assay, HEK293T. In kind it is cell-based. To be noted: for IC50: Table 2, XTT, non-cancerous cells; for selectivity: potency against A2780 compared to HEK293T: ratio of XTT IC50s. The method, then:
as §1

Test [8] deals with human embryonic kidney cell line 293A (HEK293A). Nature of the test: XTT cell proliferation assay, HEK293A. Type of test: cell-based. The following applies: for IC50: Table 2, XTT, non-cancerous cells; for selectivity: potency against A2780 compared to HEK293A: ratio of XTT IC50s. As for the experimental part: as §1
Test [9] deals with PARP cleavage in A2780 cells. The experiment in a line: Apoptosis assay: PARP cleavage by immunoblot, A2780. The following applies: 30 h treatment. In kind it is cell-based, human. The method, then:
(§3) To monitor apoptosis potential of Cisplatin derivatives we followed cleavage of poly ADP ribose polymerase (PARP) protein [18]. Briefly, cells (2 × 10^5 cells/ml) were treated with Cisplatin derivatives for the indicated time. Cells were collected, washed once with cold PBS, and lysed in buffer [10 mMTris-HCl (pH 7.4), 100 mMNaCl, 1 mM EDTA, 1 mM EGTA, 1 mM NaF, 20 mM Na4P2O7, 2 mM Na3VO4, 1 % Triton x-100, 10 % Glycerol, 0.1 % sodium dodecyl sulfate (SDS), 0.5 % deoxycholate, 1 mM phenylmethylsulfonyl fluoride (PMSF), for 30 min at 4 °C. Cell lysate supernatants (40 μg protein/each) were resolved on 8 % SDS-polyacrylamide gel electrophoresis, transferred to nitrocellulose membranes, and analyzed by immune-blotting with an anti-cleaved PARP antibody (Cell signaling technology, USA ). Anti α-tubulin antibody (Santa Cruz Co., CA, USA) was used as a loading control.
Background: In western blotting, separated proteins are transferred to a membrane and probed.

Test [10] deals with PARP cleavage in A2780cisR cells. The experiment in a line: Apoptosis assay: PARP cleavage by immunoblot, A2780cisR. Type of test: cell-based, human. To be noted: for concentration causing significant PARP cleavage, A2780cisR: 30 h treatment. As for the experimental part: as §3
Test [11] has as its system cleaved PARP in A2780cisR cells. Nature of the test: PathScan cleaved PARP (Asp214) sandwich ELISA, A2780cisR. The following applies: 30 h. Type of test: cell-based, human. As for the experimental part:
Cell lysates prepared from treated ovarian cancer cells (30 h) were used for quantitative measurement of cleaved PARP according to manufacturer’s instructions (Cell signaling technology, USA). In our experiments, 20 μg of total lysate proteins from each sample were utilized.

[12] abbreviates: Table 1, 72 h treatment, read-out: IC50 anti-proliferative activity A2780.

In the case of `O=C1[O][Pt]2([NH][C@@H]3CCCC[C@H]3[NH]2)[O]C1=O` [Oxaliplatin, reference compound], the IC50 in test [1] (setting [12]) came out at 12.7 µM; in test [2], 15.5 µM; in test [3], 3.2 µM; in test [4], 0.18 µM; in test [5], 1.6 µM.
For `CCCCCCCCCCCC(=O)[O][Pt]([NH2])([NH2])([Cl])([Cl])[O]C(=O)CCCCCCCCCCC` [RJY6, Cis, cis, trans-[diamminedichloro-bis-lauratoplatinum(IV)]], the half-inhibitory concentration (IC50) in test [1] (setting [12]) was 0.7 µM; in test [1] (Table 2, read-out: IC50 A2780), 0.7 µM; in test [2], 3.3 µM; in [3], 1.3 µM; in test [6], 82 µM; in test [7], 11.8 µM. The half-inhibitory concentration (IC50) in test [8] was 17.3 µM; in test [4], 0.015 µM; in test [5], 0.013 µM. Also, the “increased anti-proliferative potency compared to Cisplatin, A2780cisR” value in test [2] was 5-6 fold. In test [3], the “enhanced anti-CML activity compared to Cisplatin, K562” value amounted to 4 folds. Also, the “ratio of IC50s against none cancerous cells (HFF) to the cancerous cell line (A2780)” value (shortened to “ratio of IC50s”) in [6] was 117 and 117.2. The “selectivity: potency against A2780 compared to HEK293T” value in test [7] worked out at 16 fold. Further, the “selectivity: potency against A2780 compared to HEK293A” value in test [8] is listed as 24 fold. For the same compound, the “clonigenicity IC50s values lower than Cisplatin” value in test [4] is recorded as 20–30 folds. For the same compound, in test [9], the “concentration causing significant PARP cleavage, A2780” value is “above 25 microM”. Moreover, the “concentration causing significant PARP cleavage, A2780cisR” value in [10] is recorded as “above 25 microM”. The figures for the “increase in levels of cleaved PARP compared to untreated sample” value (“increase in levels of cleaved PARP” below) in test [11] (1 microM), in test [11] (5 microM) and in [11] (25 microM) were 2 fold, 3 fold and 21 fold, respectively.
Turning to `N.N.O=C([O-])C1(C(=O)[O-])CCC1.[Pt+2]` [Carboplatin, reference compound], the IC50 in [1] (setting [12]) was 16.8 µM; in test [1] (Table 2, read-out: IC50 A2780) it was 16.8 µM; in test [2] it was 109 µM; in test [7] it was 45 µM; in test [8], 105 µM.
On to `CCCCCCCC(=O)[O][Pt]([NH2])([NH2])([Cl])([Cl])[O]C(=O)CCCCCCC` [RJY13, Cis, cis, trans-[diamminedichloro-bis-octanoatoplatinum (IV)]], for which the IC50 in test [1] (setting [12]) is 0.08 µM; in test [1] (Table 2, read-out: IC50 A2780), 0.08 µM; in test [2], 0.57 µM; in [3], 0.7 µM; in [6], 2.4 µM; in test [7], 0.5 µM. In addition, the IC50 in test [8] is 0.7 µM; in [4], 0.01 µM; in test [5], 0.01 µM. In addition, in test [1] (ratio of IC50s vs Cisplatin), the “increased anti-proliferative potency compared to Cisplatin, A2780” value is 16 fold. Further, the “increased anti-proliferative potency compared to Cisplatin, A2780cisR” value in test [2] is listed as 33 fold. Moreover, the “enhanced anti-CML activity compared to Cisplatin, K562” value in test [3] is recorded as 7 folds. The “ratio of IC50s” value in test [6] is on record as 30. Also, the “selectivity: potency against A2780 compared to HEK293T” value in [7] is on record as “about 10 fold”. Also, the “selectivity: potency against A2780 compared to HEK293A” value in test [8] is listed as “about 10 fold”. Moreover, the “clonigenicity IC50s values lower than Cisplatin” value in test [4] is given as 20–30 folds. Moreover, the “concentration causing significant PARP cleavage, A2780” value in test [9] was found to be 5 µM. Moreover, the “concentration causing significant PARP cleavage, A2780cisR” value in test [10] worked out at 5 µM. The “increase in levels of cleaved PARP” value in test [11] (1 microM) is listed as 4 fold; in test [11] (5 microM), 34 fold; in test [11] (25 microM), 37 fold.
For `CCCCCCCC/C=C\CCCCCCCC(=O)[O][Pt]([NH2])([NH2])([Cl])([Cl])[O]C(=O)CCCCCCC/C=C\CCCCCCCC` [RJY3], the IC50 is above 20 µM in test [1] (setting [12]), 15 µM in test [2], 9.4 µM in test [3] and 0.07 µM in test [4].
As to `N.N.[Cl][Pt][Cl]` [Cisplatin, cis-Diamminedichloroplatinum (II)], the concentration for half-maximal inhibition (IC50) in test [1] (setting [12]) was found to be 1.3 µM; in [1] (Table 2, read-out: IC50 A2780), 1.3 µM; in test [2], 19.2 µM; in test [3], 5.2 µM; in [6], 84 µM; in [7], 3.2 µM. Further, the IC50 in test [8] was 16.3 µM; in test [4], 2.3 µM; in [5] it was 4.2 µM. Moreover, the “ratio of IC50s” value in test [6] is 63. Further, the “concentration causing significant PARP cleavage, A2780” value in test [9] is 25 µM. Also, the “PARP cleavage in A2780cisR” value in [10] (30 h, concentrations below 100 microM) was “very minimal cleavage of PARP”. Moreover, the “increase in levels of cleaved PARP” value in [11] (25 microM) is 2.4 fold.
